In patent US9084904B2, “Composition for external application” (OTSUKA PHARMACEUTICAL CO., LTD., priority 2008, dated 2015):

Test system: JB6 CL 41-5A Cell Line, mouse epidermis
Test: Influence of glucose on the intracellular ATP generation-promotion effect of AMP in cultured mouse epidermal cells (ATPlite luminescence)
Assay type: cell-based
Details: AMP 1 mM, 2 h
From the text: The following reports a test for examining the influence of glucose on the intracellular ATP generation-promotion effect given by AMP. Cultured mouse epidermal cells were used in the test.
Cells: JB6 CL 41-5A Cell Line, mouse epidermis
Culture medium: an MEM medium containing 5% FCS (Fetal Calf Serum)
MEM medium (Nacalai Tesque), Fetal calf serum (GIBCO) AMP: disodium adenosine monophosphate (Yamasa Corporation)
Glucose: D-glucose (Wako Pure Chemical Ind. Ltd.)
ATP measurement: “ATPlite” Luminescence Assay System (Perkin Elmer)
Microplate luminescence reader Anthos Lucy 1 (Aloka Co., Ltd.)
Cultured mouse epidermal cells were inoculated in a 96-well microplate in an amount of 5.8×10^3 cells per well. After two hours, the medium was replaced with another culture medium containing a test sample of a predetermined quantity. After another two hours, the medium was removed, and the amount of ATP was measured.
In the following experiment example, the content of glucose was 100 mg/dL, based on the fact that the normal fasting blood-sugar level of a living body is generally about 70 to 100 mg/dL.
Three concentrations (101, 110, 200 mg/dL) of glucose were added to a normal culture medium (containing 100 mg/dL of glucose) so as to examine how each concentration affects the ATP generation-promotion effect of AMP (1 mM). […] The addition of glucose with a concentration of 110 mg/dL increased ATP generation by 25%, based on the concentration of 100 mg/dL that corresponds to the normal fasting blood-sugar level.
Based on the result of Experiment Example 1, another experiment was performed as follows so as to confirm the influence of the glucose addition on the ATP generation-promotion effect of AMP by ensuring the increase of ATP generation by AMP (1 mM) when the glucose content is 101 mg/dL and 110 mg/dL, and ensuring the decrease of ATP generation by AMP (1 mM) when the glucose content is 200 mg/dL or higher.

[1] = Experiment Example 2, glucose 600 mg/dL

## Nc1ncnc2c1ncn2[C@@H]1O[C@H](COP(=O)([O-])[O-])[C@@H](O)[C@H]1O.[Na+].[Na+] [AMP, disodium adenosine monophosphate]
Experiment Example 1, glucose 110 mg/dL, based on 100 mg/dL glucose
  increase of ATP generation: 25%
Experiment Example 1, glucose 200 mg/dL
  ATP generation: lower than when the glucose content was 110 mg/dL and AMP was 1 mM
Experiment Example 1, glucose content increased from 101 to 110 mg/dL
  ATP generation: ATP generation increased
Experiment Example 2, glucose 101 mg/dL
  increase of ATP generation: ≥ 30%
Experiment Example 2, glucose 110 mg/dL
  increase of ATP generation: ≥ 30%
Experiment Example 2, glucose 200 mg/dL
  ATP generation: lower than when the glucose content was 100 mg/dL and AMP was 1 mM
[1]
  ATP generation compared with AMP-free medium containing 100 mg/dL glucose: not significantly lower
  ATP generation-promotion effect of AMP: small
